Source: patent publication US20070167412A1, “HALOCOMBSTATINS AND METHODS OF SYNTHESIS THEREOF” (ARIZONA BOARD OF REGENTS, priority 2003, published 2007)
Values after ≈ are worked out from the molar mass of the structure shown.

Legend:
tubulin = test: inhibition of [3H]colchicine binding to tubulin; details: 1.0 μM tubulin, 5.0 μM [3H]colchicine, inhibitor at 1.0 μM, 10 minutes at 37° C.
Procedure: (§1) Tubulin polymerization was evaluated by turbidimetry at 350 nm using Beckman DU7400/7500 spectrophotometers as described in detail elsewhere. […] Varying concentrations of drug were preincubated with 10 μM:M ([…]) purified tubulin (See Hamel, E., et al., Separation of Active Tubulin and Microtubule-associated Proteins by Ultracentrifiigation and Isolation of a Component Causing the Formation of Microtubule Bundles, Biochemistry 1984, 23, 4173-4184). Samples were chilled on ice, GTP (0.4 mM) was added, and polymerization was followed at 30° C. The parameter measured was extent of the reaction after 20 minutes. Coichicine binding was measured as described in detail previously. Reaction mixtures contained 1.0 μM :M tubulin, 5.0:M, [^3H]colchicine (from Dupont), and inhibitor at 1.0 μM:M. Incubation was for 10 minutes at 37° C.

[1] = test system: microtubules in human umbilical vein endothelial cells (HUVEC); test: disruption of microtubules in HUVEC; format: cell-based
Text: HUVECs were isolated according to methods know to one of skill in the art (see Jaffe, E. A. et al., Culture of Human Endothelial Cells Derived From Umbilical Veins. Identification by Morphologic and Immunologic Criteria, J. Clin. Invest. 1973, 52, 2754-2756.)

purified tubulin = test system: T1, purified tubulin; test: inhibition of tubulin polymerization (turbidimetry); format: biochemical; details: 10 μM tubulin, GTP 0.4 mM, 30° C., extent after 20 minutes; read-out: Inhibition of polymerization IC50 ± S.D.
T1 construct: other: 10 μM tubulin, GTP 0.4 mM, 30° C., extent after 20 minutes
Procedure: as §1
Tubulin Evaluations: Tubulin polymerization was evaluated by turbidimetry at […] using Beckman DU7400/7500 spectrophotometers as known to one of skill in the art. Varying concentrations of the compound were preincubated with 10 μM. […]

Enterococcus faecalis = test: reference broth microdilution susceptibility assay; format: cell-based; details: Table III
Outline: (§2)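 Susceptibility was tested by the reference broth microdilution method. Bacterial strains followed the NCCLS standard for aerobically growing bacteria (M7-A5), and yeasts followed the NCCLS broth dilution reference method for yeasts (M27-A).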

[2] = test system: Stenotrophomonas maltophilia; test: reference broth microdilution susceptibility assay; format: cell-based; details: Table III
Outline: as §2

Escherichia coli = test: reference broth microdilution susceptibility assay; format: cell-based; details: Table III
Outline: (§3)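 Standardized microdilution in liquid medium; the aerobic-bacteria standard (M7-A5) applies to the bacterial species and the yeast standard (M27-A) to the fungal ones.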

Streptococcus pneumoniae = test: reference broth microdilution susceptibility assay; format: cell-based; details: Table III
Outline: as §2

Enterobacter cloacae = test: reference broth microdilution susceptibility assay; format: cell-based; details: Table III
Outline: as §2

Neisseria gonorrhoeae = test: reference broth microdilution susceptibility assay; format: cell-based; details: Table III
Outline: as §2

Candida albicans = test: reference broth microdilution susceptibility assay; format: cell-based; details: Table III
Outline: as §3

Cryptococcus neoformans = test: reference broth microdilution susceptibility assay; format: cell-based; details: Table III
Outline: as §3

Staphylococcus aureus = test: reference broth microdilution susceptibility assay; format: cell-based; details: Table III
Outline: as §2

Micrococcus luteus = test: reference broth microdilution susceptibility assay; format: cell-based; details: Table III
Outline: as §3

Lung-NSC NCI-H460 = test: human cancer cell growth inhibition, sulforhodamine B assay; format: cell-based; details: Table I; 48 hours
Outline: (§4)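 NCI sulforhodamine B protocol: cells exposed to compounds for 48 h, then fixed with trichloroacetic acid, stained with sulforhodamine B and read on a microplate reader.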

Colon KM20L2 = test: as above; format: cell-based; details: Table I; 48 hours
Outline: as §4

Pancreas BXPC-3 = test: as above; format: cell-based; details: Table I; 48 hours
Outline: as §4

Prostate DU-145 = test: as above; format: cell-based; details: Table I; 48 hours
Outline: as §4

Breast MCF-7 = test: as above; format: cell-based; details: Table I; 48 hours
Outline: as §4

CNS SF268 = test: as above; format: cell-based; details: Table I; 48 hours
Outline: as §4

[3] = test system: human umbilical vein endothelial cells (HUVEC); test: Matrigel cord formation assay; format: cell-based; design: key to Lengths of Cords: −: No Cords; +: Small; ++: ˜50% of Control; +++: Same as Control; details: 24 hours, compared to untreated controls
Procedure: (§5) In vitro Matrigel antiangiogenesis assays were implemented according to the Developmental Therapeutics Program NCI/NIH protocols known to one of skill in the art. Matrigel, a basement membrane matrix, was obtained from BD Biosciences. Growth inhibition and cord formation assays were Conducted using human umbilical vein endothelial cells obtained from GlycoTeCh. HUVEC cells were grown in EGM-2 medium.
(§6) An aliquot of sixty microliters was placed in each well of an ice-cold 96-well plate. The plates were then left for 15 minutes at room temperature, then incubated for 30 minutes at 37° C. to permit the matrigel to polymerize. Meanwhile, HUVEC cells were harvested and diluted to a concentration of 2×10^5 cells/ml. A solution of 100 μL containing the compounds to be tested was added next. After 24 hours incubation, pictures were taken for each concentration using an inverted Nikon Diaphot microscope and D100 digital camera. Drug effect was assessed, compared to untreated controls, by measuring the length of cords formed and number ofjunctions.

SW1736 = test: human anaplastic thyroid carcinoma cell line inhibition; format: cell-based
Procedure: (§7) Inhibition of human cancer cell growth was assessed using the National Cancer Institute's standard sulforhodamine B assay. After 48 hours, the plates were fixed with trichloracetic acid, stained with sulforhodamine B and read with an automated microplate reader. A growth inhibition of 50% (GI50 or the drug concentration causing a 50% reduction in the net protein increase) was calculated from optical density data with Inmunosoft software. Inhibition of the mouse leukemia P388 cells was assessed in a 10% horse serum/Fisher medium soution for 24 hours, followed by a 48 hour incubation with serial dilutions of the compounds. Cell growth inhibition (ED50) was then calculated using a Z1 Becleman/Coulter particle counter.

KAT-4 = test: as above; format: cell-based
Procedure: as §7

[4] = test system: human umbilical vein endothelial cells (HUVEC); test: Matrigel cord formation assay; format: cell-based; design: key: −: No Junctions; +: Few; ++: ˜50% of Control; +++: Same as Control; details: 24 hours, compared to untreated controls
Procedure: as §5, §6

[5] = test system: human umbilical vein endothelial cells (HUVEC); test: Matrigel cord formation assay; format: cell-based; design: key: −: No Cords; +: Small; ++: ˜50% of Control; +++: Same as Control; details: 24 hours, compared to untreated controls
Procedure: as §5, §6

[6] = test system: human umbilical vein endothelial cells (HUVEC); test: HUVEC growth inhibition, sulforhodamine B assay; format: cell-based
Procedure: as §5
The standard sulforhodamine B assay (see Cancer Cell Line Procedures above) was used to evaluate results using HUVEC cells. IC50 or ED50 (drug concentration causing 50% inhibition) was calculated from the plotted data.

3-Cloro-4,4′,5-trimethoxy-3′-hydroxy-Z-stilbene [Compound 12a]
Inhibition of colchicine binding % inhibition ± S.D. (tubulin): 85 ± 4% | ability to disrupt microtubules in HUVEC [1]: disrupt microtubules | IC50 (purified tubulin): 1600 ± 300 nM | Range of minimum inhibitory concentration, Enterococcus faecalis (Enterococcus faecalis): * (no inhibition at 64 μg/ml) | Range of minimum inhibitory concentration, Stenotrophomonas maltophilia [2]: * (no inhibition at 64 μg/ml) | Range of minimum inhibitory concentration, Escherichia coli (Escherichia coli): * (no inhibition at 64 μg/ml) | Range of minimum inhibitory concentration, Streptococcus pneumoniae (Streptococcus pneumoniae): 32 to 64 µg/mL | Range of minimum inhibitory concentration, Enterobacter cloacae (Enterobacter cloacae): * (no inhibition at 64 μg/ml) | Range of minimum inhibitory concentration, Neisseria gonorrhoeae (Neisseria gonorrhoeae): 16 µg/mL | Range of minimum inhibitory concentration, Candida albicans (Candida albicans): * (no inhibition at 64 μg/ml) | Range of minimum inhibitory concentration, Cryptococcus neoformans (Cryptococcus neoformans): 64 µg/mL | Range of minimum inhibitory concentration, Staphylococcus aureus (Staphylococcus aureus): * (no inhibition at 64 μg/ml) | Range of minimum inhibitory concentration, Micrococcus luteus (Micrococcus luteus): 32 µg/mL | Human cancer cell line inhibition (GI50) Lung-NSC NCI-H460 (Lung-NSC NCI-H460): <0.001 µg/mL | Human cancer cell line inhibition (GI50) Colon KM20L2 (Colon KM20L2): 0.15 µg/mL | Human cancer cell line inhibition (GI50) Pancreas-a BXPC-3 (Pancreas BXPC-3): 0.043 µg/mL | Human cancer cell line inhibition (GI50) Prostate DU-145 (Prostate DU-145): <0.001 µg/mL | Human cancer cell line inhibition (GI50) Breast adn MCF-7 (Breast MCF-7): <0.001 µg/mL | Human cancer cell line inhibition (GI50) CNS SF268 (CNS SF268): <0.001 µg/mL

COc1ccc(/C=C\c2cc(I)c(OC)c(I)c2)cc1O [Compound 22a, 3,5-diiodo-4,4′-dimethoxy-3′-hydroxy-z-stilbene]
Lengths of Cords ([3]; 0.0001 μg/ml): +++ | Lengths of Cords ([3]; 0.001 μg/ml): + | Lengths of Cords ([3]; 0.01 μg/ml): − | GI50 (SW1736; Homo sapiens, SW-1736): 1.2 µg/mL (≈ 2.36 µM) | GI50 (KAT-4; Homo sapiens, KAT-4): 0.039 to 0.063 µg/mL (≈ 0.0768 to 0.124 µM) | Number of junctions ([4]; 0.01 μg/ml): − | Number of junctions ([5]; 0.0001 μg/ml): +++ | Relative % Growth ([6]; HUVEC, 0.00001 μg/ml): 87% | Relative % Growth ([6]; HUVEC, 0.0001 μg/ml): 84% | Relative % Growth ([6]; HUVEC, 0.001 μg/ml): 8% | Relative % Growth ([6]; HUVEC, 0.01 μg/ml): 4% | GI50 ([6]; Homo sapiens, HUVEC, Table V, read-out: Human Umbilical Vein Endothelial Cell (HUVEC) Inhibition Values (GI50)): 0.00028 µg/mL (≈ 0.000551 µM)

Potassium 3,5-dilodo-4,4′dimethoxy-z-stilbene 3′-O-phosphate [Compound S (Table Ia)]
Lengths of Cords ([3]; 0.001 μg/ml): +++ | Lengths of Cords ([3]; 0.1 μg/ml): − | Human Anaplastic Thyroid Carcinoma Cell Line Inhibition Values (GI50) SW1736 (SW1736): >10 µg/mL | Human Anaplastic Thyroid Carcinoma Cell Line Inhibition Values (GI50) KAT-4 (KAT-4): 0.38 to 0.44 µg/mL | Number of junctions ([4]; 0.1 μg/ml): − | Number of junctions ([5]; 0.001 μg/ml): +++ | Relative % Growth ([6]; HUVEC, 0.0001 μg/ml): 96% | Relative % Growth ([6]; HUVEC, 0.001 μg/ml): 88% | Relative % Growth ([6]; HUVEC, 0.01 μg/ml): 33% | Relative % Growth ([6]; HUVEC, 0.1 μg/ml): 15% | Human Umbilical Vein Endothelial Cell (HUVEC) Inhibition Values (GI50) ([6]; Table V): 0.0049 µg/mL

Potassium 3-iodo-4,4′,5-trimethoxy-z-stilbene 3′-O-phosphate [Compound 20c]
Lengths of Cords ([3]; 0.00001 μg/ml): +++ | Lengths of Cords ([3]; 0.0001 μg/ml): +++ | Lengths of Cords ([3]; 0.001 μg/ml): ++ | Human Anaplastic Thyroid Carcinoma Cell Line Inhibition Values (GI50) SW1736 (SW1736): >10 µg/mL | Human Anaplastic Thyroid Carcinoma Cell Line Inhibition Values (GI50) KAT-4 (KAT-4): 0.37 to 0.43 µg/mL | Number of junctions ([5]; 0.00001 μg/ml): +++ | Number of junctions ([5]; 0.0001 μg/ml): +++ | Relative % Growth ([6]; HUVEC, 0.00001 μg/ml): 95% | Relative % Growth ([6]; HUVEC, 0.0001 μg/ml): 77% | Relative % Growth ([6]; HUVEC, 0.001 μg/ml): 10% | Relative % Growth ([6]; HUVEC, 0.01 μg/ml): 1% | Human Umbilical Vein Endothelial Cell (HUVEC) Inhibition Values (GI50) ([6]; Table V): 0.00025 µg/mL
